Patent publication US9770026B2, “Substituted pyrimidine compound and uses thereof” (Shenyang Sinochem Agrochemicals R&D Co., Ltd., priority 2012, dated 2017)

Columns and labels:
[1] = tested on: Green peach aphids (Myzus Persicae Sulzer); experiment: bioactivity test against green peach aphid, airbrush foliar spray; type: in vivo; settings: Myzus persicae, foliar, 48 h, contrastive test, read-out: Insecticidal activity against peach aphid (%); for pest or weed control at 10 µg/mL: 10 mg/L; for pest or weed control at 100 µg/mL: 100 mg/L; for pest or weed control at 600 µg/mL: 600 mg/L
Summary of the method: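 Aphids (15-30 per cabbage leaf disc) on moist filter paper were airbrush-sprayed at 10 psi, 0.5 mL, with compound from acetone:methanol (1:1) diluted in water with 0.1% tween 80. Held at 25±1 C, 60±5% RH; survivors counted after 48 hrs to give death rates.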

cucumber gray mold = experiment: fungicidal activity in vitro (inhibition rate) against cucumber gray mold; type: cell-based; settings: 25 ppm, in vitro; read-out: inhibition rate against cucumber gray mold
Diamond back moth = experiment: insecticidal activity against diamond back moth, airbrush spray; type: in vivo; settings: 72 h, 600 mg/L
Summary of the method: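 Airbrush leaf-disc spray test: both faces of 2 cm cabbage discs received 0.5 ml of test solution at 0.7 kg/cm^2. Solutions were made in acetone:methanol (1:1) and brought to concentration with 0.1% Tween 80 in water. Ten second-instar larvae per disc, triplicates, were held at 25° C and 60˜70% R.H., with mortality recorded at 72 hrs.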

armyworm = experiment: bioactivity test against armyworm, airbrush spray; type: in vivo; settings: 72 h, read-out: Insecticidal activity against armyworm (%); for pest or weed control at 600 µg/mL: 600 mg/L
cucumber downy mildew = experiment: protectant activity in vivo against cucumber downy mildew; settings: Cucumis sativus, 168 h, protectant activity; for pest or weed control at 25 µg/mL: read-out: control effect against cucumber downy mildew (%), 25 mg/L; for pest or weed control at 50 µg/mL: read-out: control effect against cucumber downy mildew (%), 50 mg/L; for pest or weed control at 100 µg/mL: read-out: control effect against cucumber downy mildew (%), 100 mg/L; for pest or weed control at 400 µg/mL: read-out: control effect against cucumber downy mildew (%), 400 mg/L
wheat powdery mildew = experiment: protectant activity in vivo against wheat powdery mildew; settings: Triticum aestivum, 168 h, protectant activity; for pest or weed control at 400 µg/mL: read-out: control effect against wheat powdery mildew (%), 400 mg/L
corn rust = experiment: protectant activity in vivo against corn rust; settings: Zea mays, 168 h, protectant activity; for pest or weed control at 400 µg/mL: read-out: control effect against corn rust (%), 400 mg/L; for pest or weed control at 6.25 µg/mL: read-out: control effect against corn rust (%), 6.25 mg/L; for pest or weed control at 25 µg/mL: read-out: control effect against corn rust (%), 25 mg/L; for pest or weed control at 100 µg/mL: read-out: control effect against corn rust (%), 100 mg/L
carmine spider mite = experiment: bioactivity test against carmine spider mite, airbrush spray; type: in vivo; settings: Tetranychus cinnabarinus, 72 h, contrastive test, read-out: Insecticidal activity against carmine spider mite (% ); for pest or weed control at 600 µg/mL: 600 mg/L
Summary of the method: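 Broadbean seedlings infested with adult mites were sprayed with compound (acetone/methanol stock diluted in 0.1% Tween 80 water) by airbrush at 0.7 kg/cm^2, 0.5 ml. Three replicates were run. Mortality was scored after 72 hrs.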

N#Cc1ccc(Oc2ccc(CCNc3cc(Cl)ncn3)cc2)nc1 [CK83, reference compound] was tested, and the pest or weed control at 10 µg/mL [1] was 11%, the pest or weed control at 100 µg/mL [1] was 100% and the pest or weed control at 600 µg/mL [1] was 100%. The inhibition at 25 ppm (cucumber gray mold) was 0%, the pest or weed control at 600 µg/mL (Diamond back moth) was 17% and the pest or weed control at 600 µg/mL (armyworm) was 29%. The pest or weed control at 25 µg/mL (cucumber downy mildew) was 85%, the pest or weed control at 50 µg/mL (cucumber downy mildew) was 98% and the pest or weed control at 100 µg/mL (cucumber downy mildew) was 100%. The pest or weed control at 400 µg/mL (cucumber downy mildew) was 100%, the pest or weed control at 6.25 µg/mL (wheat powdery mildew; read-out: control effect against wheat powdery mildew (%), 6.25 mg/L) was 40% and the pest or weed control at 25 µg/mL (wheat powdery mildew; read-out: control effect against wheat powdery mildew (%), 25 mg/L) was 70%. It also gave a pest or weed control at 100 µg/mL (wheat powdery mildew; read-out: control effect against wheat powdery mildew (%), 100 mg/L) of 100%, a pest or weed control at 400 µg/mL (wheat powdery mildew) of 100% and a pest or weed control at 400 µg/mL (corn rust) of 30%.

CC(Cl)c1ncnc(NCCc2ccc(Oc3ccc(Cl)nn3)cc2)c1Cl (centres unmarked) [CK62, reference compound] gave an inhibition at 25 ppm (cucumber gray mold) of less than 50%, a pest or weed control at 600 µg/mL (carmine spider mite) of 0% and a pest or weed control at 400 µg/mL (cucumber downy mildew) of 80%.

With FC(F)(F)c1ccc(Oc2ccc(CCNc3ncnc(Cl)c3Cl)cc2)nc1 [CK73, reference compound] the pest or weed control at 10 µg/mL [1] was 0%, the pest or weed control at 100 µg/mL [1] was 100% and the pest or weed control at 600 µg/mL [1] was 100%. For the same compound, the inhibition at 25 ppm (cucumber gray mold) was 0%, the pest or weed control at 10 µg/mL (carmine spider mite; 10 mg/L) was 24% and the pest or weed control at 100 µg/mL (carmine spider mite; 100 mg/L) was 85%. For the same compound, the pest or weed control at 600 µg/mL (carmine spider mite) was 100%, the pest or weed control at 10 µg/mL (armyworm; 10 mg/L) was 0% and the pest or weed control at 100 µg/mL (armyworm; 100 mg/L) was 50%. The pest or weed control at 600 µg/mL (armyworm) was 100%, the pest or weed control at 25 µg/mL (cucumber downy mildew) was 60% and the pest or weed control at 50 µg/mL (cucumber downy mildew) was 95%. The pest or weed control at 100 µg/mL (cucumber downy mildew) was 98%, the pest or weed control at 400 µg/mL (cucumber downy mildew) was 98% and the pest or weed control at 400 µg/mL (wheat powdery mildew) was 40%. It also gave a pest or weed control at 6.25 µg/mL (corn rust) of 0%, a pest or weed control at 25 µg/mL (corn rust) of 10% and a pest or weed control at 100 µg/mL (corn rust) of 90%. For the same compound, the pest or weed control at 400 µg/mL (corn rust) was 100%.

CCc1ncnc(NCc2ccc(Oc3ccc(C(F)(F)F)cc3)cc2)c1Cl [CK54, reference compound] gave a pest or weed control at 10 µg/mL [1] of 34%, a pest or weed control at 100 µg/mL [1] of 100% and a pest or weed control at 600 µg/mL [1] of 100%. For the same compound, the inhibition at 25 ppm (cucumber gray mold) was 0%, the pest or weed control at 600 µg/mL (armyworm) was 67% and the pest or weed control at 25 µg/mL (cucumber downy mildew) was 65%. The pest or weed control at 50 µg/mL (cucumber downy mildew) was 80%, the pest or weed control at 100 µg/mL (cucumber downy mildew) was 90% and the pest or weed control at 400 µg/mL (cucumber downy mildew) was 100%. The pest or weed control at 6.25 µg/mL (corn rust) was 0%, the pest or weed control at 25 µg/mL (corn rust) was 30% and the pest or weed control at 100 µg/mL (corn rust) was 60%. For the same compound, the pest or weed control at 400 µg/mL (corn rust) was 100%.
